A short description of this data set: drug release from the sustained release oral osmotic dosage form in artificial gastric fluid. The class given is physicochemical. The note with it: release of prodrug from the osmotic sustained release dosage form of Example 1 (700 mg drug composition, one 10 mil passageway). How it is done: The bilayered arrangements next are coated with a semipermeable wall. The wall-forming composition comprises 100% cellulose acetate having a ˜40% acetyl content. The polymer is dissolved in 100% acetone to make a 4% solid solution. The wall forming composition is sprayed at 26 grams/min onto and around the bilayer cores in a tablet coater until a dry weight of 90 mg/core is achieved. Next, one 10 mil (0.254 mm) exit passageway is mechanically drilled through the semipermeable wall to connect the drug layer with the exterior of the dosage system. The residual solvent is removed by first drying for 120 hours at 50° C. and 30% relative humidity, then the systems are dried for 2 hours at 50° C. to remove excess moisture. The drug dosage form produced by this process provides: ˜90 wt % 1-{[(α-isobutanoyloxyethoxy)carbonyl]aminomethyl}-1-cyclohexane acetic acid, 4 wt % hydroxypropylmethylcellulose of 11,200 molecular weight, 4 wt % polyethylene oxide of 5,000,000 molecular weight and 1 wt % magnesium stearate in the drug layer. The push composition comprises 63.7 wt % polyethylene oxide of 7,500,000 molecular weight, 30 wt % sodium chloride, 5 wt % hydroxypropylmethylcellulose of 11,200 molecular weight, 1 wt % red ferric oxide, 0.25 wt % magnesium stearate, and 0.075 wt % of butylated hydroxytoluene. The wall comprises 100 wt % cellulose acetate comprising a ˜40% acetyl content. […]

SMILES strings stand for the structures.

Turning to `CC(OC(=O)NCC1(CC(=O)O)CCCCC1)OC(=O)C(C)C` (stereo not drawn) [1-{[(α-isobutanoyloxyethoxy)carbonyl]aminomethyl}-1-cyclohexane acetic acid], the release rate is above 20 mg/h.

(Values after patent publication US8114909B2, “Treating or preventing restless legs syndrome using prodrugs of GABA analogs” (XenoPort, Inc., priority 2003, dated 2012).)
